One series concerns Huh7 cells. As to the kind of experiment: cytotoxicity in Huh7 cells by amplification of ribosomal RNA. In kind it is cell-based. The conditions noted are these: for cytotoxicity / toxicity to cell lines: Huh7, PBM, CEM, Vero cell lines; for inhibition at 10 µM: Homo sapiens, Huh-7, read-out: Anti-HCV activity: % inhib @ 10 μM in Huh7 cells, rRNA.
Series [1] in a line: cytotoxicity in CEM cells. The conditions noted are these: human, lymphoblastoid CEM cells. The class given is cell-based.
The subject of series [2] is HCV RNA replication (subgenomic HCV replicon). As to the kind of experiment: inhibition of HCV RNA replication in Huh7 cells, subgenomic HCV replicon system. In kind it is cell-based, Hepatitis C virus. As to conditions: for antiviral activity or cytotoxicity: anti-HCV, anti-HIV and cytotoxicity assays of Table 1; for inhibition at 10 µM: Hepatitis C virus, Huh-7, read-out: Anti-HCV activity: % inhib @ 10 μM in Huh7 cells, HCV, 10 μM, Huh7 cells, HCV RNA. Background: A replicon is a self-replicating genome or part of one, used to study replication in cells.

For series [3], the target named is T1, adenosine deaminase (Bos taurus, UniProt P56658).
T1 sequence (P56658 1-363): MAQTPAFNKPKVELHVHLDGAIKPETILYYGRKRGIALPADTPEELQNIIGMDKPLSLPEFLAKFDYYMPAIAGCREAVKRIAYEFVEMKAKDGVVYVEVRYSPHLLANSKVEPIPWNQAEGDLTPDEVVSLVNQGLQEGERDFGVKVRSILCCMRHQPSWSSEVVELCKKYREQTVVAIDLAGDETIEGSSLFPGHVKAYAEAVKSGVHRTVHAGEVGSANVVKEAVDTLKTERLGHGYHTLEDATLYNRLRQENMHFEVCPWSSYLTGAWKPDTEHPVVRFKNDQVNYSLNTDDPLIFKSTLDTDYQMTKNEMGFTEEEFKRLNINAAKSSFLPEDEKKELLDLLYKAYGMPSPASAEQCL
As to the kind of experiment: inhibition of ADA catalyzed conversion of adenosine to inosine. In kind it is biochemical. As to conditions: compounds tested at 10 μM.

In series [4] the target is T1, adenosine deaminase. As to the kind of experiment: evaluation as substrates of adenosine deaminase. In kind it is biochemical.
The conditions of series [5]: cited from earlier work.
A further series has as its system HCV. As to conditions: non-obligatory chain terminators toward RNA elongation; cited from earlier work.
The nature of series [6]: stability in pH 7.4 phosphate buffer. In kind it is physicochemical. As to conditions: 23 °C, 3 days.

What is called CC50 is the concentration that lowers cell viability or growth by half. A low value points to greater toxicity to the cells. Regarding `C[C@@]1(OC(=O)c2ccccc2)[C@H](OC(=O)c2ccccc2)[C@@H](COC(=O)c2ccccc2)O[C@H]1n1cnc2c(N)nc(NO)nc21` [Compound 26], the “cytotoxicity / toxicity to cell lines” value in the series on Huh7 cells was “broad toxicity against most cell lines tested”. In series [1], this molecule showed a CC50 of 27.4 µM.
`C[C@@]1(O)[C@H](O)[C@@H](CO)O[C@H]1n1cnc2c(N)nc(N=[N+]=[N-])nc21` [Compound 20]: the inhibition at 10 µM with Huh7 cells was 0%. For the same molecule, the “antiviral activity or cytotoxicity” value in series [2] is listed as “no antiviral activity or cytotoxicity”.
As for `C[C@@]1(O)[C@H](O)[C@@H](CO)O[C@H]1n1cnc2c(N)nc(Cl)nc21` [Compound 17], the “antiviral activity or cytotoxicity” value in series [2] was “no antiviral activity or cytotoxicity”.
As to `C[C@@]1(O)[C@H](O)[C@@H](CO)O[C@H]1n1cnc2c(N)n[nH]c(=O)c21` [Compound 32, 4-amino-1-(2-methyl-β-D-ribofuranosyl)-3H-imidazo[4,5-d] pyriazin-7-(6H)-one], the inhibition at 10 µM in the series with Huh7 cells is 0%. On adenosine deaminase [3], the “ability to inhibit ADA catalyzed conversion of adenosine to inosine” value is “Only compound 21 was found effective”. Further, the “substrate of adenosine deaminase (nitrogen to oxygen transformation)” value (from here on “substrate of adenosine deaminase”) at adenosine deaminase [4] is “none underwent a nitrogen to oxygen transformation”.
On to `C[C@@]1(O)[C@H](O)[C@@H](CO)O[C@H]1n1cnc2c(=N)n(N)[nH]c(=O)c21` [Compound 33], for which the inhibition at 10 µM in the series on Huh7 cells stood at 0%.
Consider `C[C@@]1(O)[C@H](O)[C@@H](CO)O[C@H]1n1cnc2c(N)nc(-n3ccnn3)nc21` [Compound 21], for which the inhibition at 10 µM in the series on Huh7 cells was 0%. Moreover, the “ability to inhibit ADA catalyzed conversion of adenosine to inosine” value on adenosine deaminase [3] is “effective”. Moreover, the “substrate of adenosine deaminase” value on adenosine deaminase [4] is “none underwent a nitrogen to oxygen transformation”. Moreover, the “antiviral activity or cytotoxicity” value in series [2] was “no antiviral activity or cytotoxicity”.
As to `CCOP(=O)(OCC)c1nc(N)nc2c1ncn2[C@@H]1O[C@H](CO)[C@@H](O)[C@@]1(C)O` [Compound 9], the inhibition at 10 µM with Huh7 cells was found to be 14.8%; in series [2] it was 18.7%. Also, the “ability to inhibit ADA catalyzed conversion of adenosine to inosine” value on adenosine deaminase [3] was “Only compound 21 was found effective”. Also, on adenosine deaminase [4], the “substrate of adenosine deaminase” value is recorded as “none underwent a nitrogen to oxygen transformation”.
For `C[C@@]1(O)[C@H](O)[C@@H](CO)O[C@H]1n1cnc2c(=O)[nH]c(N)nc21` [Compound 2, 2′-C-methyl guanosine], the “in vivo bioavailability” value in series [5] is recorded as “poor bioavailability”. The “in vitro anti-HCV activity” value in the series with HCV is “selective in vitro anti-HCV activity”.
For `C[C@@]1(OC(=O)c2ccccc2)[C@H](OC(=O)c2ccccc2)[C@@H](COC(=O)c2ccccc2)O[C@H]1n1cnc2c(Cl)nc(NO)nc21` [Compound 27], in the series with Huh7 cells, the inhibition at 10 µM stood at 99.9% and the “cytotoxicity / toxicity to cell lines” value was “broad toxicity against most cell lines tested”.
Take `CCOP(=O)(O)c1nc(N)nc2c1ncn2[C@@H]1O[C@H](CO)[C@@H](O)[C@@]1(C)O` [Compound 10]: the “ability to inhibit ADA catalyzed conversion of adenosine to inosine” value on adenosine deaminase [3] was “Only compound 21 was found effective”. Further, the “substrate of adenosine deaminase” value at adenosine deaminase [4] is recorded as “none underwent a nitrogen to oxygen transformation”. In addition, the inhibition at 10 µM in series [2] is 19.3%.
As to `Cc1nc2c3ncn([C@@H]4O[C@H](CO)[C@@H](O)[C@@]4(C)O)c3nc(N)n2n1` [Compound 13a], the inhibition at 10 µM in the series on Huh7 cells came to 0%.
Regarding `C[C@@]1(O)[C@H](O)[C@@H](CO)O[C@H]1n1cnc2c1nc(N)n1nc(-c3ccco3)nc21` [Compound 13b], the inhibition at 10 µM with Huh7 cells was 0%. In addition, the “ability to inhibit ADA catalyzed conversion of adenosine to inosine” value on adenosine deaminase [3] is “Only compound 21 was found effective”.
Consider `C[C@@]1(O)[C@H](O)[C@@H](CO)O[C@H]1n1cnc2c(N)nc(NN)nc21` [Compound 19], for which the “cytotoxicity / toxicity to cell lines” value in the series with Huh7 cells is “no observed cytotoxicity”. The “stability in phosphate buffer” value in series [6] is reported as “complete conversion of 19 to a complex mixture of products after 3 days”.
With `CCOC(=O)[C@H](C)NP(=O)(OC[C@H]1O[C@@H](n2cnc3c(C)nc(N)nc32)[C@](C)(O)[C@@H]1O)Oc1ccccc1` (stereo partly shown) [Compound 7], in the series on Huh7 cells, the inhibition at 10 µM worked out at 0%. The “anti-HCV activity / inhibition of HCV replicon RNA replication” value in series [2] (up to 10 μM) is reported as “did not display any inhibition of HCV replicon RNA replication”.
In the case of `C[C@@]1(O)[C@H](O)[C@@H](CO)O[C@H]1n1cnc2c(N)nc(-n3cc([Si](C)(C)C)nn3)nc21` [Compound 22], the inhibition at 10 µM with Huh7 cells stood at 0%. For the same molecule, in series [2], the “antiviral activity or cytotoxicity” value is recorded as “no antiviral activity or cytotoxicity”.
As to `COc1nc(Cl)nc2c1ncn2[C@@H]1O[C@H](CO)[C@@H](O)[C@@]1(C)O` [Compound 18], in series [2], the inhibition at 10 µM came out at 14.3% and the “antiviral activity or cytotoxicity” value is on record as “no antiviral activity or cytotoxicity”.
Take `Cc1nc(N)nc2c1ncn2[C@@H]1O[C@H](CO)[C@@H](O)[C@@]1(C)O` [Compound 6]: in the series on Huh7 cells, the inhibition at 10 µM turned out to be 0%.
`C[C@@]1(O)[C@H](O)[C@@H](CO)O[C@H]1n1cnc2c(=O)[nH]nc(N)c21` [Compound 35, 7-amino-1-(2-methyl-δ -D-ribofuranosyl)-1H-imidazo [4,5-d] pyridazin-4-(5H)-one]: in the series with Huh7 cells, the inhibition at 10 µM is 0%. Also, the “ability to inhibit ADA catalyzed conversion of adenosine to inosine” value at adenosine deaminase [3] is on record as “Only compound 21 was found effective”.
With `C[C@@]1(O)[C@H](O)[C@@H](CO)O[C@H]1n1cnc2c(N)ncnc21` [Compound 1, 2′-C-Methyl adenosine], the “in vivo bioavailability” value in series [5] was “poor bioavailability”. Further, in the series with HCV, the “in vitro anti-HCV activity” value was “selective in vitro anti-HCV activity”.

The record behind these values is paper PMC3352596 (Bioorganic & medicinal chemistry letters, 2011).
